Results published in patent publication US20070276040A1, “Peptidyl Arginine Deiminase Type IV Inhibitor” (priority 2004, published 2007).

Biological target: T1, PAD4 (Homo sapiens, UniProt Q9UM07, G112A/G55S/V82A)
T1 construct: made in house
Assay: Inhibition reaction of Bz-Arg derivatives on PAD4 digestion
Type: biochemical
Conditions: substrate Bz-Arg; 20 μl inhibitor solution of 1 nmol/μl; 10 mM CaCl2, pH 7.6; 37° C. for 40 or 60 minutes; reverse-phase HPLC
Procedure: A buffer solution B (0.1 M Tris/HCl, 10 mM CaCl2, 2 mM DTT, pH 7.6, 125 μl), Bz-Arg (0.1 M Tris/HCl, 10 mM CaCl2, pH 7.6, 25 μl (a solution prepared in a concentration of 1 nmol/μl)) and PAD4 (1 μl) were mixed together under ice-cooling to give a Bz-Arg solution. PAD4 was prepared in accordance with the methods described in The Journal of Biological Chemistry, Vol. 277, No. 51, pp. 49562-49568, 2002 and in the documents cited in the journal. Twenty μl each of Bz-Arg (mono-methyl), Bz-ADMA, Bz-SDMA and a buffer solution A (0.1 M Tris/HCl, 10 mM CaCl2, pH 7.6) (a solution prepared in a concentration of 1 nmol/μl) was mixed with the Bz-Arg solution (30 μl) and allowed to react at 37° C. for 40 or 60 minutes. The reaction was quenched with 1 M HCl (50 μl) and then subjected to reverse-phase HPLC to separate the reaction mixture. […] The results as determined 40 minutes and 60 minutes after the start of reaction are shown in FIG. 3 and FIG. 4, respectively. In FIGS. 3 and 4, the reference number 1 represents the result with no inhibitor, 2 for the result with Bz-Arg (mono-methyl), 3 for the results with Bz-ADMA, and 4 for the result with Bz-SDMA; the vertical axis indicates the sample number and the horizontal axis indicates the yield of the deimination reaction (i.e., yield of the Bz-citrulline produced).

T1 sequence (Q9UM07 whole entry G55S/V82A/G112A): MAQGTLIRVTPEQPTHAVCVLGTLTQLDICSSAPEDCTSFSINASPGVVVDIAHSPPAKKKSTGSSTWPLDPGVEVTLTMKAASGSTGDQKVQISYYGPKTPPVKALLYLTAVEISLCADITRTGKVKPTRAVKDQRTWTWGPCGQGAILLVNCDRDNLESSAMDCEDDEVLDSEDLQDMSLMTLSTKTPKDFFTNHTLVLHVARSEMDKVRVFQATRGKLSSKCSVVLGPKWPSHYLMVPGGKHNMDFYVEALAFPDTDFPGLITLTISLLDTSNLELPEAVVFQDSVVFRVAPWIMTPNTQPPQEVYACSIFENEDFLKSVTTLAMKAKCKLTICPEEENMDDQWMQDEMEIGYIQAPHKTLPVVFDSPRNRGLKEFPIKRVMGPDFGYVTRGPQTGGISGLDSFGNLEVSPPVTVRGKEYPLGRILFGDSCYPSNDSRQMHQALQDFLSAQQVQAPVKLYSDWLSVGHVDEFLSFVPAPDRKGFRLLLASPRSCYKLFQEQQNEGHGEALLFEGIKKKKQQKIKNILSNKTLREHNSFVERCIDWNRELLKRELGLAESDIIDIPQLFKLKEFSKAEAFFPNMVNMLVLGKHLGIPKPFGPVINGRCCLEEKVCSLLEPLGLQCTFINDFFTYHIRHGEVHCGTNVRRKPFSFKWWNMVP

Row | inhibitory effect on PAD4 digestion (deimination of Bz-Arg, yield of the Bz-citrulline produced) | Structure (SMILES)
1 | most potent inhibitory effect | CN(C)C(=N)NCCCC(NC(=O)c1ccccc1)C(=O)O (centres unmarked) [Bz-ADMA]
2 | no inhibitory effect | C/N=C(/NC)NCCCC(NC(=O)c1ccccc1)C(=O)O (centres unmarked) [Bz-SDMA]
